Among the data in patent publication US20230102554A1 (GB002, INC., priority 2019, published 2023) are IC50 values, retold here.

Assay [1] addresses T1, Human PDGFRα, cytoplasmic domain (GST-PDGFRα) (Homo sapiens, UniProt P16234).
T1 construct: made in house
The assay is described as follows: Human PDGFRα biochemical inhibition assay (off-chip Mobility Shift Assay).

Assay [2] deals with T2, Human PDGFRβ, cytoplasmic domain (GST-PDGFRβ) (Homo sapiens, UniProt P09619).
T2 construct: made in house
T2 sequence (P09619 with tags, fused parts or gaps): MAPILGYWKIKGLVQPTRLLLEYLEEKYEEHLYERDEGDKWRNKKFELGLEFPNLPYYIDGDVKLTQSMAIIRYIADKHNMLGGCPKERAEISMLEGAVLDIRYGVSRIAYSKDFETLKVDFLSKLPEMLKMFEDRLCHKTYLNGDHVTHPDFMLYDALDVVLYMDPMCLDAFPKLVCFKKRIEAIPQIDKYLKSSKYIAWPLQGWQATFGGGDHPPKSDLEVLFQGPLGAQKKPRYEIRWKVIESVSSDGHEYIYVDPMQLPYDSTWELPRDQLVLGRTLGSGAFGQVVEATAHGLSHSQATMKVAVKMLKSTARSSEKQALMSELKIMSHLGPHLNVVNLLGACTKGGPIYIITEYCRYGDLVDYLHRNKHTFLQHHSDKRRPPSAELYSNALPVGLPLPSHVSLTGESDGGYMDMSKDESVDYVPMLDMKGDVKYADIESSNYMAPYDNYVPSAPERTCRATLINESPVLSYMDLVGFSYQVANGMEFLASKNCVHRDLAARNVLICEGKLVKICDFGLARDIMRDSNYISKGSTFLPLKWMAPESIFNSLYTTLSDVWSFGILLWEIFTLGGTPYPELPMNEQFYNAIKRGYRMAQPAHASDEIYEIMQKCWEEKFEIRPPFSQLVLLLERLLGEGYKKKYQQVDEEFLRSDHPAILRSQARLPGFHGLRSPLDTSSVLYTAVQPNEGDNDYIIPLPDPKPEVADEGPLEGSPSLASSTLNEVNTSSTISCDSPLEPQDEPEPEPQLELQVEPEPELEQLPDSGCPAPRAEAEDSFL
The assay is described as follows: Human PDGFRβ biochemical inhibition assay (off-chip Mobility Shift Assay). A digest of the protocol: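 GST-tagged cytoplasmic domain (aa 557-1106) from baculovirus was incubated 1 h at room temperature with compound, CSKtide, ATP at Km and Mg²⁺ in HEPES buffer, pH 7.5. Phosphorylated and unphosphorylated peptide were separated by off-chip mobility shift, and the product ratio P/(P+S) gave percent inhibition.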

T1 sequence (P16234 550-1089 T674I): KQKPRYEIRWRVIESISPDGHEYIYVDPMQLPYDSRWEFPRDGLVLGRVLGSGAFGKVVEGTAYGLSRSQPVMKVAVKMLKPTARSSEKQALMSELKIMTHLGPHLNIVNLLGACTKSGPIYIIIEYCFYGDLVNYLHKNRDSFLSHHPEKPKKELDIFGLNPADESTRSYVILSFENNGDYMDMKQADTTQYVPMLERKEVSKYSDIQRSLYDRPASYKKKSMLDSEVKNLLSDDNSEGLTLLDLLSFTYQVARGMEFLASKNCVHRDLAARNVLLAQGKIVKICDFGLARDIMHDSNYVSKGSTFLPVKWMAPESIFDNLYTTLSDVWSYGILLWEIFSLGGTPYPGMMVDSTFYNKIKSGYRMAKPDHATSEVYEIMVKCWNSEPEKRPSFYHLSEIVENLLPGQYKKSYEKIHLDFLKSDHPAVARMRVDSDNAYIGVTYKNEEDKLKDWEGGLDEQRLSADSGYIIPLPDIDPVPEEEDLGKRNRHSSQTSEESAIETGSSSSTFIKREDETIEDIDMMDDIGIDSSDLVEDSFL

The IC50 is the concentration that inhibits the measured activity by half. As to `CCn1cc2ncc(N[C@@H](C)c3cccc(NC(=O)c4ccc(CN5CCOCC5)c(C(F)(F)F)c4)c3)nc2n1` [Compound 424, (S)-N-(3-(1-((2-ethyl-2H-pyrazolo[3,4-b]pyrazin-6-yl)amino)ethyl)phenyl)-4-(morpholinomethyl)-3-(trifluoromethyl)benzamide], the IC50 in assay [1] and in assay [2] was below 300 nM in each case.

Turning to `CCn1cc2ncc(N[C@@H](C)c3cccc(NC(=O)c4ccc(F)c(C)c4)c3)nc2n1` [Compound 330, (S)-N-(3-(1-((2-ethyl-2H-pyrazolo[3,4-b]pyrazin-6-yl)amino)ethyl)phenyl)-4-fluoro-3-methylbenzamide], the IC50 in assay [1] and in assay [2] was below 300 nM each time.

With `Cc1cc(C(=O)Nc2cccc([C@H](C)Nc3cnc4cnn(C)c4n3)c2)ccc1C(=O)OCc1oc(=O)oc1C` [Compound 267, (5-methyl-2-oxo-1,3-dioxol-4-yl)methyl (S)-2-methyl-4-((3-(1-((1-methyl-1H-pyrazolo[3,4-b]pyrazin-6-yl)amino)ethyl)phenyl)carbamoyl)benzoate], the IC50 in assay [1] and in assay [2] was below 300 nM in each case.

`CCn1cc2ncc(N[C@@H](C)c3cc(NC(=O)Cc4ccc(C(C)(C)F)cn4)ccc3C)nc2n1` [Compound 690, (S)-N-(3-(1-((2-ethyl-2H-pyrazolo[3,4-b]pyrazin-6-yl)amino)ethyl)-4-methylphenyl)-2-(5-(2-fluoropropan-2-yl)pyridin-2-yl)acetamide]: the IC50 was 300 to 1000 nM in assay [1] and at least 1000 nM in assay [2].

For `C[C@H](Nc1cnc2cn[nH]c2n1)c1cccc(NC(=O)c2cncc(C3CC3)c2)c1` [Compound 93, (S)-N-(3-(1-((1H-pyrazolo[3,4-b]pyrazin-6-yl)amino)ethyl)phenyl)-5-cyclopropylnicotinamide], the IC50 in assay [1] and in assay [2] was below 300 nM in each case.

Regarding `CCn1cc2ncc(N[C@@H](C)c3cccc(NC(=O)c4ccc(N5CCOCC5)nc4)c3)nc2n1` [Compound 372, (S)-N-(3-(1-((2-ethyl-2H-pyrazolo[3,4-b]pyrazin-6-yl)amino)ethyl)phenyl)-6-morpholinonicotinamide], the IC50 in assay [1] is 300 to 1000 nM; in assay [2], at least 1000 nM.

In the case of `Cc1cncc(C(=O)Nc2cccc([C@H](C)Nc3cnc4cnn(C5CCOC5)c4n3)c2)c1` (stereo partly drawn) [Compound 182, 5-methyl-N-(3-((1S)-1-((1-(tetrahydrofuran-3-yl)-1H-pyrazolo[3,4-b]pyrazin-6-yl)amino)ethyl)phenyl) nicotinamide], the results for the IC50 in assay [1] and in assay [2] were below 300 nM and at least 1000 nM, respectively.

For `CCn1cc2ncc(N[C@@H](C)c3cc(NC(=O)c4ccc(OC(F)F)nc4)ccc3C)nc2n1` [Compound 511, (S)-6-(difluoromethoxy)-N-(3-(1-((2-ethyl-2H-pyrazolo[3,4-b]pyrazin-6-yl)amino)ethyl)-4-methylphenyl)nicotinamide], the IC50 in assay [1] and in assay [2] was below 300 nM throughout.

For the compound `CCn1cc2ncc(N[C@@H](C)c3cc(NC(=O)c4ccc(CN5CCOCC5)c(Cl)c4)ccc3F)nc2n1` [Compound 427, (S)-3-chloro-N-(3-(1-((2-ethyl-2H-pyrazolo[3,4-b]pyrazin-6-yl)amino)ethyl)-4-fluorophenyl)-4-(morpholinomethyl)benzamide], the IC50 in assay [1] and in assay [2] was below 300 nM in each case.

Turning to `CCn1cc2ncc(N[C@@H](C)c3cc(NC(=O)c4cnc(C)s4)ccc3F)nc2n1` [Compound 307, (S)-N-(3-(1-((2-ethyl-2H-pyrazolo[3,4-b]pyrazin-6-yl)amino)ethyl)-4-fluorophenyl)-2-methylthiazole-5-carboxamide], the IC50 in assay [1] and in assay [2] was below 300 nM each time.

On to `Cc1cncc(C(=O)Nc2cccc([C@H](C)Nc3cnc4[nH]c(C5CC5)nc4c3)c2)c1` [Compound 601, (S)-N-(3-(1-((2-cyclopropyl-3H-imidazo[4,5-6]pyridin-6-yl)amino)ethyl)phenyl)-5-methylnicotinamide], for which the IC50 in assay [1] and in assay [2] was below 300 nM each time.

Take `C#Cc1cncc(C(=O)Nc2cccc([C@H](C)Nc3cnc4cnn(C)c4n3)c2)c1` [Compound 113, (S)-5-ethynyl-N-(3-(1-((1-methyl-1H-pyrazolo[3,4-b]pyrazin-6-yl)amino)ethyl)phenyl)nicotinamide]: the IC50 in assay [1] is below 300 nM; in assay [2], 300 to 1000 nM.

Take `C[C@H](Nc1cnc2cnn(C)c2n1)c1cccc(NC(=O)Cc2cnn(C)c2)c1` [Compound 629, (S)-2-(1-methyl-1H-pyrazol-4-yl)-N-(3-(1-((1-methyl-1H-pyrazolo[3,4-b]pyrazin-6-yl)amino)ethyl)phenyl)acetamide]: the figures for the IC50 in assay [1] and in assay [2] were below 300 nM and at least 1000 nM, respectively.

As to `CCn1cc2ncc(N[C@@H](C)c3cccc(NC(=O)Cc4ccc(C5CC5)cn4)c3)nc2n1` [Compound 682, (S)-2-(5-cyclopropylpyridin-2-yl)-N-(3-(1-((2-ethyl-2H-pyrazolo[3,4-b]pyrazin-6-yl)amino)ethyl)phenyl)acetamide], the IC50 was 300 to 1000 nM in assay [1] and at least 1000 nM in assay [2].

For `C[C@H](Nc1cnc2cnn(C)c2n1)c1cccc(NC(=O)c2ccc(OC(F)F)nc2)c1` [Compound 118, (S)-6-(difluoromethoxy)-N-(3-(1-((1-methyl-1H-pyrazolo[3,4-6]pyrazin-6-yl)amino)ethyl)phenyl)nicotinamide], the 50% inhibitory concentration (IC50) in assay [1] and in assay [2] was below 300 nM throughout.

In the case of `CCn1cc2ncc(N[C@@H](C)c3cccc(NC(=O)c4ccc(N5CCOCC5)c(C)c4)c3)nc2n1` [Compound 386, (S)-N-(3-(1-((2-ethyl-2H-pvrazolo[3,4-b]pyrazin-6-yl)amino)ethyl)phenyl)-3-methyl-4-morpholinobenzamide], the IC50 in assay [1] and in assay [2] was below 300 nM throughout.

In the case of `C[C@H](Nc1cnc2cnn(C)c2n1)c1cccc(NC(=O)c2ccn(C(F)F)n2)c1` [Compound 155, (S)-1-(difluoromethyl)-N-(3-(1-((1-methyl-1H-pyrazolo[3,4-b]pyrazin-6-yl)amino)ethyl)phenyl)-1H-pyrazole-3-carboxamide], the half-inhibitory concentration (IC50) was below 300 nM in assay [1] and at least 1000 nM in assay [2].

As for `Cc1cncc(C(=O)Nc2cccc([C@H](C)Nc3cnc4[nH]cc(C)c4n3)c2)c1` [Compound 15, (S)-5-methyl-N-(3-(1-((7-methyl-5H-pyrrolo[2,3-b]pyrazin-2-yl)amino)ethyl)phenyl)nicotinamide], the IC50 in assay [1] and in assay [2] was below 300 nM in each case.

For the compound `CSc1ccc(C(=O)Nc2cccc([C@H](C)Nc3cnc4cnn(C)c4n3)c2)cn1` [Compound 218, (S)-N-(3-(1-((1-methyl-1H-pyrazolo[3,4-b]pyrazin-6-yl)amino)ethyl)phenyl)-6-(methylthio)nicotinamide], the IC50 in assay [1] and in assay [2] was below 300 nM throughout.

Regarding `Cc1n[nH]c2ncc(N[C@@H](C)c3cccc(NC(=O)c4cnn(C(F)F)c4)c3)nc12` [Compound 546, (S)-1-(difluoromethyl)-N-(3-(1-((3-methyl-1H-pyrazolo[3,4-b]pyrazin-5-yl)amino)ethyl)phenyl)-1H-pyrazole-4-carboxamide], the IC50 in assay [1] and in assay [2] was below 300 nM throughout.

Regarding `CCn1cc2ncc(N[C@@H](C)c3cc(NC(=O)Cc4ccc(Cl)cn4)ccc3C)nc2n1` [Compound 657, (S)-2-(5-chloropyridin-2-yl)-N-(3-(1-((2-ethyl-2H-pyrazolo[3,4-b]pyrazin-6-yl)amino)ethyl)-4-methylphenyl)acetamide], the IC50 in assay [1] and in assay [2] was below 300 nM throughout.

In the case of `CCn1cc2ncc(N[C@@H](C)c3cc(NC(=O)c4cnc(C5CC5)s4)ccc3F)nc2n1` [Compound 309, (S)-2-cyclopropyl-N-(3-(1-((2-ethyl-2H-pyrazolo[3,4-b]pyrazin-6-yl)amino)ethyl)-4-fluorophenyl)thiazole-5-carboxamide], the IC50 in assay [1] and in assay [2] was below 300 nM each time.

As for `CCn1cc2ncc(N[C@@H](C)c3cc(NC(=O)c4ccc(C(F)(F)F)nc4)ccc3F)nc2n1` [Compound 10, (S)—N-(3-(1-((2-ethyl-2H-pyrazolo[3,4-b]pyrazin-6-yl)amino)ethyl)-4-fluorophenyl)-6-(trifluoromethyl)nicotinamide], the IC50 in assay [1] and in assay [2] was below 300 nM throughout.

Regarding `CCn1cc2ncc(N[C@@H](C)c3cccc(NC(=O)c4cnc(C(F)F)c(C)c4)c3)nc2n1` [Compound 353], the IC50 in assay [1] and in assay [2] was below 300 nM each time.

In the case of `Cc1cc2ncc(N[C@@H](C)c3cccc(NC(=O)c4cnn(C5CCC5)c4)c3)nc2s1` [Compound 609, (S)-1-cyclobutyl-N-(3-(1-((6-methylthieno[2,3-b]pyrazin-3-yl)amino)ethyl)phenyl)-1H-pyrazole-4-carboxamide], the IC50 in assay [1] and in assay [2] was below 300 nM each time.

Turning to `Cc1cncc(C(=O)Nc2cccc([C@H](C)Nc3cnc4cn(-c5ccccc5)nc4n3)c2)c1` [Compound 434, (S)-5-methyl-N-(3-(1-((2-phenyl-2H-pyrazolo[3,4-b]pyrazin-6-yl)amino)ethyl)phenyl)nicotinamide], the IC50 in assay [1] and in assay [2] was below 300 nM each time.

For `CCn1cc2ncc(N[C@@H](C)c3cccc(NC(=O)Nc4ccc(C5CC5)nc4)c3)nc2n1` [Compound 737, (S)-1-(6-cyclopropylpyridin-3-yl)-3-(3-(1-((2-ethyl-2H-pyrazolo[3,4-b]pyrazin-6-yl)amino)ethyl)phenyl)urea], the IC50 in assay [1] and in assay [2] was below 300 nM each time.

Take `Cc1cncc(C(=O)Nc2cccc([C@H](C)Nc3cnn4cc(-c5cnn(C)c5)ccc34)c2)c1` [Compound 746, (S)-5-methyl-N-(3-(1-((6-(1-methyl-1H-pyrazol-4-yl)pyrazolo[1,5-a]pyridin-3-yl)amino)ethyl)phenyl) nicotinamide]: the half-maximal inhibitory concentration (IC50) in assay [1] and in assay [2] was below 300 nM throughout.
